Experimental data reported in US20170114025A1, “METHODS FOR INHIBITING NECROPTOSIS” (Catalyst Therapeutics Pty Ltd, priority 2014, published 2017).
Read-outs that look alike come from different tables or passages of the source.

Key:
[1] = tested on: U937 human histiocytic leukemia cell line; test: Screening for inhibition of TSQ induced necroptosis, 96 well plate format; assay type: cell-based
Method: Screening Compounds for Inhibition of TSQ Induced Necroptosis, 96 Well Plate Format.
U937 human histiocytic leukemia cell line.
35,000 per well in 120 μL of media, counted and plated immediately prior to addition of inhibitor and death stimuli. Final well volume of 150 μL after addition of compounds and death stimuli
HTRPMI (WEHI Media kitchen, contains L-Glutamine and penicillin, streptomycin)—supplemented with 7.4% v/v FCS (Gibco, Precision Plus. Lot #1221437)
48 hours following addition of compounds and death stimuli
DMSO Final Concentration (% v/v): 0.2%
Compounds that are in the Death Stimulation Cocktail and their Final Concentrations: • hTNF-Fc (100 ng/ml)—produced by Silke lab, WEHI • Compound A (500 nM)—Smac mimetic, Tetralogic • Q-VD-OPh (10 μM)—MP Biomedicals
Analysis: • Cells treated with PI staining (1 μg/ml) and analysed by flow cytometry
TNF; S: Smac mimetic; Q: Q-VD-OPh): TSQ treatment ensures that cells specifically undergo necroptotic cell death. TNF activates the TNF receptor, Smac mimetic direct the signal away from proinflammatory signaling and toward the RIP1/RIP3-mediated cell death pathways, and Q-VD-OPh ensures that the apoptotic response is blocked leaving only the programmed necrosis response. The compounds' activity (solution in DMSO) tested in this TSQ-induced assay is evaluated by measuring their ability to block cell death as measured by flow cytometry after PI staining.

U937 cells = test: Counter screen: cell viability without TSQ cocktail (off target effect); assay type: cell-based
Method: In parallel, all compounds are tested for their ability to affect cell viability. The same U937 cells are treated with compound in DMSO without the TSQ cocktail. This counter screen enables evaluation of off-target effects. In this case gain, cell viability is measured by flow cytometry after PI staining.

[2] = U-937, U937, TSQ, 48 hours, average IC50, unit not given in Table 2 (titrations in nM), read-out: Cell based assay Average
[3] = U-937, U937, TSQ, 48 hours, unit not given in Table 2 (titrations given in nM), read-out: Cell based assay IC50
[4] = U937 without TSQ cocktail, compound at 500 nM
[5] = U937 without TSQ cocktail, compound at 1 uM
[6] = U937 without TSQ cocktail, compound at 5 uM
[7] = U937 without TSQ cocktail, compound at 10 uM

## CN(c1ccc(NC(=O)Nc2ccc(OC(F)(F)F)cc2)cc1)c1ccnc(Nc2ccccc2S(N)(=O)=O)n1 [Compound 5, 2-(4-(Methyl(4-(3-(4-(trifluoromethoxy)phenyl)ureido)phenyl)amino)pyrimidin-2-ylamino)benzenesulfonamide]
[1]; [2]
  IC50: > 10000 nM
[1]; [3]
  IC50: ≥ 10000 nM

## Cc1ccc(F)c(NC(=O)Nc2ccc(N(C)c3ccnc(Nc4cccc(S(N)(=O)=O)c4)n3)cc2)c1 [Compound 6]
[1]; [2]
  IC50: 19.9 nM
[1]; [3]
  IC50: 19 nM
U937 cells; [4]
  Off target effect (% cell death) at 500 nM: <20%
U937 cells; [5]
  Off target effect (% cell death) at 1 uM: 40%
U937 cells; [6]
  Off target effect (% cell death) at 5 uM: 86%
U937 cells; [7]
  Off target effect (% cell death) at 10 uM: 89%

## CN(c1ccc(NC(=O)Nc2ccc(OC(F)(F)F)cc2)cc1)c1ccnc(Nc2cccc(C(N)=O)c2)n1 [Compound 8, 3-((4-(methyl(4-(3-(4-(trifluoromethoxy)phenyl)ureido)phenyl)amino)pyrimidin-2-yl)amino) benzamide]
[1]; [2]
  IC50: 89.1 nM
[1]; [3]
  IC50: 85.2 nM

## CNS(=O)(=O)c1cccc(Nc2nccc(N(C)c3ccc(NC(=O)Nc4ccc(OC(F)(F)F)cc4)cc3)n2)c1 [Compound 9, N-methyl-3-((4-(methyl(4-(3-(4-(trifluoromethoxy)phenyl)ureido)-phenyl)amino)pyrimidin-2-yl)amino) benzenesulfonamide]
[1]; [2]
  IC50: 42 nM
[1]; [3]
  IC50: 73.1 nM
U937 cells; [4]
  Off target effect (% cell death) at 500 nM: <20%
U937 cells; [5]
  Off target effect (% cell death) at 1 uM: <20%
U937 cells; [6]
  Off target effect (% cell death) at 5 uM: 43%
U937 cells; [7]
  Off target effect (% cell death) at 10 uM: 88%

## CN(c1ccc(NC(=O)Nc2ccc(OC(F)(F)F)cc2)cc1)c1ccnc(Nc2cccc(S(=O)(=O)N(C)C)c2)n1 [Compound 10, N,N-dimethyl-3-((4-(methyl(4-(3-(4-(trifluoromethoxy)phenyl)ureido)-phenyl)amino)pyrimidin-2-yl)amino)benzenesulfonamide]
[1]; [2]
  IC50: 45.6 nM
[1]; [3]
  IC50: 72.4 nM
U937 cells; [4]
  Off target effect (% cell death) at 500 nM: <20%
U937 cells; [5]
  Off target effect (% cell death) at 1 uM: <20%
U937 cells; [6]
  Off target effect (% cell death) at 5 uM: 38%
U937 cells; [7]
  Off target effect (% cell death) at 10 uM: 69%

## NS(=O)(=O)c1cccc(Nc2nccc(Nc3ccc(NC(=O)Nc4ccc(OC(F)(F)F)cc4)cc3)n2)c1 [Compound 11, 3-((4-((4-(3-(4-(trifluoromethoxy)phenyl)ureido)phenyl)amino)pyrimidin-2-yl)amino)benzenesulfonamide]
[1]; [2]
  IC50: 359 nM
[1]; [3]
  IC50: 359 nM
U937 cells; [4]
  Off target effect (% cell death) at 500 nM: <20%
U937 cells; [5]
  Off target effect (% cell death) at 1 uM: <20%
U937 cells; [6]
  Off target effect (% cell death) at 5 uM: <20%
U937 cells; [7]
  Off target effect (% cell death) at 10 uM: 20%

## CN(C(=O)Nc1ccc(OC(F)(F)F)cc1)c1ccc(N(C)c2ccnc(Nc3cccc(S(N)(=O)=O)c3)n2)cc1 [Compound 12, 3-((4-(methyl(4-(1-methyl-3-(4-(trifluoromethoxy)phenyl)ureido)phenyl)amino)pyrimidin-2-yl)amino) benzene sulfonamide]
[1]; [3]
  IC50: 327 nM
U937 cells; [4]
  Off target effect (% cell death) at 500 nM: 36%
U937 cells; [5]
  Off target effect (% cell death) at 1 uM: 41%
U937 cells; [6]
  Off target effect (% cell death) at 5 uM: 36%
U937 cells; [7]
  Off target effect (% cell death) at 10 uM: 56%

## CN(c1ccc(NC(=O)Nc2ccc(OC(F)(F)F)cc2)cc1)c1ccnc(Nc2cccc(CS(N)(=O)=O)c2)n1 [Compound 13, (3-((4-(Methyl(4-(3-(4-(trifluoromethoxy)phenyl)ureido)phenyl)amino)pyrimidin-2-yl)amino)phenyl)methanesulfonamide]
[1]; [2]
  IC50: 149 nM
[1]; [3]
  IC50: 167 nM
U937 cells; [4]
  Off target effect (% cell death) at 500 nM: 24%
U937 cells; [5]
  Off target effect (% cell death) at 1 uM: 20%
U937 cells; [6]
  Off target effect (% cell death) at 5 uM: 14%
U937 cells; [7]
  Off target effect (% cell death) at 10 uM: 84%

## CN(c1cccc(NC(=O)Nc2ccc(OC(F)(F)F)cc2)c1)c1ccnc(Nc2cccc(S(N)(=O)=O)c2)n1 [Compound 14, 3-((4-(methyl(3-(3-(4-(trifluoromethoxy)phenyl)ureido)phenyl)amino)pyrimidin-2-yl)amino) benzenesulfonamide]
[1]; U-937, 48 h, read-out: Cell based assay Average
  IC50: 342 nM
[1]; U-937, 48 h, read-out: Cell based assay IC50
  IC50: 443 nM
U937 cells; [4]
  Off target effect (% cell death) at 500 nM: <20%
U937 cells; [5]
  Off target effect (% cell death) at 1 uM: <20%
U937 cells; [6]
  Off target effect (% cell death) at 5 uM: <20%
U937 cells; [7]
  Off target effect (% cell death) at 10 uM: 70%

## CN(c1ccc(NC(=O)Nc2ccc(OC(F)(F)F)cc2)cc1)c1ccnc(Nc2cccc(S(N)(=O)=O)c2)c1 [Compound 15, 3-((4-(methyl(4-(3-(4-(trifluoromethoxy)phenyl)ureido)phenyl)amino)pyridin-2-yl)amino) benzenesulfonamide]
[1]; [2]
  IC50: 304 nM
[1]; [3]
  IC50: 328 nM
U937 cells; [4]
  Off target effect (% cell death) at 500 nM: <20%
U937 cells; [5]
  Off target effect (% cell death) at 1 uM: <20%
U937 cells; [6]
  Off target effect (% cell death) at 5 uM: <20%
U937 cells; [7]
  Off target effect (% cell death) at 10 uM: 43%

## CN(c1ccc(NC(=O)Cc2ccc(OC(F)(F)F)cc2)cc1)c1ccnc(Nc2cccc(S(N)(=O)=O)c2)n1 [Compound 16, N-(4-(methyl(2-((3-sulfamoylphenyl)amino)pyrimidin-4-yl)amino)phenyl)-2-(4-(trifluoro-methoxy)phenyl)acetamide]
[1]; [2]
  IC50: 87.3 nM
[1]; [3]
  IC50: 97.5 nM
U937 cells; [4]
  Off target effect (% cell death) at 500 nM: <20%
U937 cells; [5]
  Off target effect (% cell death) at 1 uM: <20%
U937 cells; [6]
  Off target effect (% cell death) at 5 uM: <20%
U937 cells; [7]
  Off target effect (% cell death) at 10 uM: 30%

## CN(c1ccc(CC(=O)Nc2ccc(OC(F)(F)F)cc2)cc1)c1ccnc(Nc2cccc(S(N)(=O)=O)c2)n1 [Compound 17, 2-(4-(methyl(2-((3-sulfamoylphenyl)amino)pyrimidin-4-yl)amino)phenyl)-N-(4-(trifluoromethoxy)phenyl)acetamide]
[1]; [2]
  IC50: 1050 nM
[1]; [3]
  IC50: 979 nM
U937 cells; [4]
  Off target effect (% cell death) at 500 nM: 22%
U937 cells; [5]
  Off target effect (% cell death) at 1 uM: 21%
U937 cells; [6]
  Off target effect (% cell death) at 5 uM: <20%
U937 cells; [7]
  Off target effect (% cell death) at 10 uM: 39%

## CN(c1ccc(NC(=O)Nc2ccc(OC(F)(F)F)cc2)cc1)c1ccnc(Nc2ccc(F)c(S(N)(=O)=O)c2)n1 [Compound 18, 2-Fluoro-5-((4-(methyl(4-(3-(4-(trifluoromethoxy)phenyl)ureido)phenyl)amino)pyrimidin-2-yl)amino)benzenesulfonamide]
[1]; [2]
  IC50: 59.4 nM
[1]; [3]
  IC50: 91.7 nM
U937 cells; [4]
  Off target effect (% cell death) at 500 nM: 27%
U937 cells; [5]
  Off target effect (% cell death) at 1 uM: 29%
U937 cells; [6]
  Off target effect (% cell death) at 5 uM: 94%
U937 cells; [7]
  Off target effect (% cell death) at 10 uM: 93%

## Cc1ccc(Nc2nccc(N(C)c3ccc(NC(=O)Nc4ccc(OC(F)(F)F)cc4)cc3)n2)cc1C(=O)N(C)C [Compound 19, N,N,2-trimethyl-5-((4-(methyl(4-(3-(4-(trifluoromethoxy)phenyl)ureido)phenyl)amino)pyrimidin-2-yl)amino)benzamide]
[1]; [2]
  IC50: 85.5 nM
[1]; [3]
  IC50: 114 nM
U937 cells; [4]
  Off target effect (% cell death) at 500 nM: 28%
U937 cells; [5]
  Off target effect (% cell death) at 1 uM: 30%
U937 cells; [6]
  Off target effect (% cell death) at 5 uM: 26%
U937 cells; [7]
  Off target effect (% cell death) at 10 uM: 70%

## Cc1cc(OC(F)(F)F)ccc1NC(=O)Nc1ccc(N(C)c2ccnc(Nc3cccc(S(N)(=O)=O)c3)n2)cc1 [Compound 20, 3-((4-(Methyl(4-(3-(2-methyl-4-(trifluoromethoxy)phenyl)ureido)phenyl)-amino)pyrimidin-2-yl)amino) benzenesulfonamide]
[1]; [2]
  IC50: 109 nM
[1]; [3]
  IC50: 143 nM
U937 cells; human, 500 nM
  Off target effect (% cell death) at 500 nM: 24%
U937 cells; human, 1 uM
  Off target effect (% cell death) at 1 uM: 29%
U937 cells; human, 5 uM
  Off target effect (% cell death) at 5 uM: 33%
U937 cells; human, 10 uM
  Off target effect (% cell death) at 10 uM: 80%

## Cc1ccc(Nc2nccc(N(C)c3ccc(NC(=O)Nc4ccc(OC(F)(F)F)cc4)cc3)n2)cc1S(N)(=O)=O [Compound 21, 2-Methyl-5-((4-(methyl(4-(3-(4-(trifluoromethoxy)phenyl)ureido)phenyl)amino)pyrimidin-2-yl)amino) benzenesulfonamide]
[1]; [2]
  IC50: 58.4 nM
[1]; [3]
  IC50: 72.7 nM
U937 cells; [4]
  Off target effect (% cell death) at 500 nM: <20%
U937 cells; [5]
  Off target effect (% cell death) at 1 uM: <20%
U937 cells; [6]
  Off target effect (% cell death) at 5 uM: 51%
U937 cells; [7]
  Off target effect (% cell death) at 10 uM: 79%

## CN(c1ccc(NC(=O)C(C)(C)c2ccc(OC(F)(F)F)cc2)cc1)c1ccnc(Nc2cccc(S(N)(=O)=O)c2)n1 [Compound 22, 2-methyl-N-(4-(methyl(2-((3-sulfamoylphenyl)amino)pyrimidin-4-yl)amino)phenyl)-2-(4-(trifluoromethoxy)phenyl)propanamide]
[1]; [2]
  IC50: 204 nM
U937 cells; [4]
  Off target effect (% cell death) at 500 nM: <20%
U937 cells; [5]
  Off target effect (% cell death) at 1 uM: <20%
U937 cells; [6]
  Off target effect (% cell death) at 5 uM: 35%
U937 cells; [7]
  Off target effect (% cell death) at 10 uM: 80%
